# Tests used:
# [1] = biological target: Mcl-1 protein (UniProtKB primary accession number: Q07820) (Homo sapiens, UniProt Q07820); assay: Inhibition of Mcl-1 by fluorescence polarisation, Method 1; format: binding; conditions: fluorescence polarisation; Method 1, or Method 2; read-out: IC50 (M) Mcl-1 FP
# Procedure, shortened: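 Buffer of 10 mM HEPES pH 7.4 with 150 mM NaCl and 0.05% Tween 20 held 5 nM Mcl-1 and 1 nM fluorescein-tagged ligand (final). Compounds were tested as 11-point serial dilutions at 5% final DMSO, and binding was read by FP.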
# [2] = system: H929 multiple myeloma tumour line; assay: In vitro cytotoxicity, Microculture Tetrazolium Assay; format: cell-based; conditions: Homo sapiens, NCI-H929, 48 h, H929 cells, 48 hours exposure, MTT; read-out: IC50 (μM) MTT H929
# Description: The cytotoxicity studies were carried out on the H929 multiple myeloma tumour line.
# The cells are distributed onto microplates and exposed to the test compounds for 48 hours.
# Sequence of Mcl-1 protein (Q07820 whole entry): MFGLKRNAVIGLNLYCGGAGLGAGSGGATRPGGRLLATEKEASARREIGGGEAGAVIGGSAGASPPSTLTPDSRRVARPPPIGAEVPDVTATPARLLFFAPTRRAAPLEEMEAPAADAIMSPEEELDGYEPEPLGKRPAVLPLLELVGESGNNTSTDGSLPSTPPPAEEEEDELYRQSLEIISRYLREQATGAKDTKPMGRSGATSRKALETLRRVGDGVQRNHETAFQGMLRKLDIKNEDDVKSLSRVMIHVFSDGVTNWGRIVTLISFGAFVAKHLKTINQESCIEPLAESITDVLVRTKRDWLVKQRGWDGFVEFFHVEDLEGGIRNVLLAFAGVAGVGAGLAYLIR
IC50 [1],Structure (SMILES),IC50 [2]
8.5e-09 M,"COc1ccccc1CC(Oc1ncnc2sc(-c3ccc(C#N)o3)c(-c3ccc(OCCN4CCN(C)CC4)c(Cl)c3C)c12)C(=O)O [Example 579, (2R)-2-{[(5Sa)-5-{3-chloro-2-methyl-4-[2-(4-methylpiperazin-1-yl)ethoxy]phenyl}-6-(5-cyanofuran-2-yl)thieno[2,3-d]pyrimidin-4-yl]oxy}-3-(2-methoxyphenyl)propanoic acid]",0.463 µM
2.9e-08 M,"C=Cc1ccc(-c2sc3ncnc(OC(Cc4ccccc4OC)C(=O)O)c3c2-c2ccc(OCCN3CCN(C)CC3)c(Cl)c2C)o1 [Example 584, (2R)-2-{[(5Sa)-5-{3-chloro-2-methyl-4-[2-(4-methylpiperazin-1-yl)ethoxy]phenyl}-6-(5-ethenylfuran-2-yl)thieno[2,3-d]pyrimidin-4-yl]oxy}-3-(2-methoxyphenyl)propanoic acid]",0.902 µM
8.5e-08 M,"COc1ccccc1CC(Oc1ncnc2sc(-c3ccc(C4CC4)o3)c(-c3ccc(OCCN4CCN(C)CC4)c(Cl)c3C)c12)C(=O)O [Example 585, (2R)-2-{[(5Sa)-5-{3-chloro-2-methyl-4-[2-(4-methylpiperazin-1-yl)ethoxy]phenyl}-6-(5-cyclopropylfuran-2-yl)thieno[2,3-d]pyrimidin-4-yl]oxy}-3-(2-methoxyphenyl)propanoic acid]",2.92 µM
2.6e-08 M,"COc1ccccc1CC(Oc1ncnc2sc(-c3cccc(OCc4ccncc4)c3)c(-c3ccc(OCCN4CCN(C)CC4)c(Cl)c3C)c12)C(=O)O [Example 587, (2R)-2-[((5Sa)-5-{3-chloro-2-methyl-4-[2-(4-methylpiperazin-1-yl)ethoxy]phenyl}-6-[3-(pyridin-4-ylmethoxy)phenyl]thieno[2,3-d]pyrimidin-4-yl)oxy]-3-(2-methoxyphenyl)propanoic acid]",0.539 µM
8e-09 M,"COc1ccccc1CC(Oc1ncnc2sc(-c3cccc(OCCN4CCOCC4)c3)c(-c3ccc(OCCN4CCN(C)CC4)c(Cl)c3C)c12)C(=O)O [Example 588, (2R)-2-[((5Sa)-5-{3-chloro-2-methyl-4-[2-(4-methylpiperazin-1-yl)ethoxy]phenyl}-6-{3-[2-(morpholin-4-yl)ethoxy]phenyl}thieno[2,3-d]pyrimidin-4-yl)oxy]-3-(2-methoxyphenyl)propanoic acid]",0.256 µM
8.7e-09 M,"COCCOc1cccc(-c2sc3ncnc(OC(Cc4ccccc4OC)C(=O)O)c3c2-c2ccc(OCCN3CCN(C)CC3)c(Cl)c2C)c1 [Example 589, (2R)-2-[((5Sa)-5-{3-chloro-2-methyl-4-[2-(4-methylpiperazin-1-yl)ethoxy]phenyl}-6-[3-(2-methoxyethoxy)phenyl]thieno[2,3-d]pyrimidin-4-yl)oxy]-3-(2-methoxyphenyl)propanoic acid]",0.233 µM
6.1e-09 M,"COCc1cc(-c2sc3ncnc(OC(Cc4ccccc4OCc4ccnc(OC)n4)C(=O)O)c3c2-c2ccc(OCCN3CCN(C)CC3)c(Cl)c2C)ccc1F [Example 594, (2R)-2-[((5Sa)-5-{3-chloro-2-methyl-4-[2-(4-methylpiperazin-1-yl)ethoxy]phenyl}-6-[4-fluoro-3-(methoxymethyl)phenyl]thieno[2,3-d]pyrimidin-4-yl)oxy]-3-{2-[(2-methoxypyrimidin-4-yl)methoxy]phenyl}propanoic acid]",0.13 µM

# The remaining lines, values behind:
Structure (SMILES),IC50 [1],IC50 [2]
"COc1ccccc1CC(Oc1ncnc2sc(-c3cccc(SC)c3)c(-c3ccc(OCCN4CCN(C)CC4)c(Cl)c3C)c12)C(=O)O [Example 558, (2R)-2-[((5Sa)-5-{3-chloro-2-methyl-4-[2-(4-methylpiperazin-1-yl)ethoxy]phenyl}-6-[3-(methylsulfanyl)phenyl]thieno[2,3-d]pyrimidin-4-yl)oxy]-3-(2-methoxyphenyl)propanoic acid]",5.9e-08 M,0.742 µM
"COc1ccccc1CC(Oc1ncnc2sc(-c3cccc(Cl)c3F)c(-c3ccc(OCCN4CCN(C)CC4)c(Cl)c3C)c12)C(=O)O [Example 559, (2R)-2-{[6-(3-chloro-2-fluorophenyl)-(5Sa)-5-{3-chloro-2-methyl-4-[2-(4-methylpiperazin-1-yl)ethoxy]phenyl}thieno[2,3-d]pyrimidin-4-yl]oxy}-3-(2-methoxyphenyl)propanoic acid]",5.2e-09 M,0.293 µM
"COc1ccccc1CC(Oc1ncnc2sc(-c3cccc(F)c3F)c(-c3ccc(OCCN4CCN(C)CC4)c(Cl)c3C)c12)C(=O)O [Example 560, (2R)-2-{[(5Sa)-5-{3-chloro-2-methyl-4-[2-(4-methylpiperazin-1-yl)ethoxy]phenyl}-6-(2,3-difluorophenyl)thieno[2,3-d]pyrimidin-4-yl]oxy}-3-(2-methoxyphenyl)propanoic acid]",1.1e-08 M,0.128 µM
"COc1ccccc1CC(Oc1ncnc2sc(-c3cccc(OC)c3F)c(-c3ccc(OCCN4CCN(C)CC4)c(Cl)c3C)c12)C(=O)O [Example 561, (2R)-2-{[(5Sa)-5-{3-chloro-2-methyl-4-[2-(4-methylpiperazin-1-yl)ethoxy]phenyl}-6-(2-fluoro-3-methoxyphenyl)thieno[2,3-d]pyrimidin-4-yl]oxy}-3-(2-methoxyphenyl)propanoic acid]",2.7e-08 M,0.61 µM
"COc1ccccc1CC(Oc1ncnc2sc(-c3cccc4occc34)c(-c3ccc(OCCN4CCN(C)CC4)c(Cl)c3C)c12)C(=O)O [Example 563, (2R)-2-{[6-(1-benzofuran-4-yl)-(5Sa)-5-{3-chloro-2-methyl-4-[2-(4-methylpiperazin-1-yl)ethoxy]phenyl}thieno[2,3-d]pyrimidin-4-yl]oxy}-3-(2-methoxyphenyl)propanoic acid]",7.4e-08 M,1.16 µM
"COc1ccccc1CC(Oc1ncnc2sc(-c3ccccc3)c(-c3ccc(OCCN4CCN(C)CC4)c(Cl)c3C)c12)C(=O)O [Example 564, (2R)-2-[((5Sa)-5-{3-chloro-2-methyl-4-[2-(4-methylpiperazin-1-yl)ethoxy]phenyl}-6-phenylthieno[2,3-d]pyrimidin-4-yl)oxy]-3-(2-methoxyphenyl)propanoic acid]",8.5e-10 M,0.202 µM
"COc1ccccc1CC(Oc1ncnc2sc(-c3ccccc3Cl)c(-c3ccc(OCCN4CCN(C)CC4)c(Cl)c3C)c12)C(=O)O [Example 565, (2R)-2-{[(5Sa)-5-{3-chloro-2-methyl-4-[2-(4-methylpiperazin-1-yl)ethoxy]phenyl}-6-(2-chlorophenyl)thieno[2,3-d]pyrimidin-4-yl]oxy}-3-(2-methoxyphenyl)propanoic acid]",4.8e-07 M,1.96 µM
"COc1ccccc1CC(Oc1ncnc2sc(-c3ccsc3)c(-c3ccc(OCCN4CCN(C)CC4)c(Cl)c3C)c12)C(=O)O [Example 568, (2R)-2-{[(5Sa)-5-{3-chloro-2-methyl-4-[2-(4-methylpiperazin-1-yl)ethoxy]phenyl}-6-(thiophen-3-yl)thieno[2,3-d]pyrimidin-4-yl]oxy}-3-(2-methoxyphenyl)propanoic acid]",2.5e-08 M,0.22 µM
"COc1ccccc1CC(Oc1ncnc2sc(-c3cnco3)c(-c3ccc(OCCN4CCN(C)CC4)c(Cl)c3C)c12)C(=O)O [Example 569, (2R)-2-{[(5Sa)-5-{3-chloro-2-methyl-4-[2-(4-methylpiperazin-1-yl)ethoxy]phenyl}-6-(1,3-oxazol-5-yl)thieno[2,3-d]pyrimidin-4-yl]oxy}-3-(2-methoxyphenyl)propanoic acid]",3.9e-08 M,1.73 µM
"COc1ccccc1CC(Oc1ncnc2sc(-c3csc(Cl)c3)c(-c3ccc(OCCN4CCN(C)CC4)c(Cl)c3C)c12)C(=O)O [Example 570, (2R)-2-{[(5Sa)-5-{3-chloro-2-methyl-4-[2-(4-methylpiperazin-1-yl)ethoxy]phenyl}-6-(5-chlorothiophen-3-yl)thieno[2,3-d]pyrimidin-4-yl]oxy}-3-(2-methoxyphenyl)propanoic acid]",2e-08 M,0.324 µM
"COc1ccccc1CC(Oc1ncnc2sc(-c3csc4ccsc34)c(-c3ccc(OCCN4CCN(C)CC4)c(Cl)c3C)c12)C(=O)O [Example 571, (2R)-2-{[(5Sa)-5-{3-chloro-2-methyl-4-[2-(4-methylpiperazin-1-yl)ethoxy]phenyl}-6-(thieno[3,2-b]thiophen-3-yl)thieno[2,3-d]pyrimidin-4-yl]oxy}-3-(2-methoxyphenyl)propanoic acid]",4.4e-08 M,0.559 µM
"CCC#Cc1sc2ncnc(OC(Cc3ccccc3OC)C(=O)O)c2c1-c1ccc(OCCN2CCN(C)CC2)c(Cl)c1C [Example 573, (2R)-2-{[6-(but-1-yn-1-yl)-(5Sa)-5-{3-chloro-2-methyl-4-[2-(4-methylpiperazin-1-yl)ethoxy]phenyl}thieno[2,3-d]pyrimidin-4-yl]oxy}-3-(2-methoxyphenyl)propanoic acid]",1.1e-08 M,0.366 µM
"COc1ccccc1CC(Oc1ncnc2sc(C(C)(F)F)c(-c3ccc(OCCN4CCN(C)CC4)c(Cl)c3C)c12)C(=O)O [Example 576, (2R)-2-{[(5Sa)-5-{3-chloro-2-methyl-4-[2-(4-methylpiperazin-1-yl)ethoxy]phenyl}-6-(1,1-difluoroethyl)thieno[2,3-d]pyrimidin-4-yl]oxy}-3-(2-methoxyphenyl)propanoic acid]",6.2e-08 M,1.51 µM
"C#Cc1ccc(-c2sc3ncnc(OC(Cc4ccccc4OC)C(=O)O)c3c2-c2ccc(OCCN3CCN(C)CC3)c(Cl)c2C)o1 [Example 578, (2R)-2-{[(5Sa)-5-{3-chloro-2-methyl-4-[2-(4-methylpiperazin-1-yl)ethoxy]phenyl}-6-(5-ethynylfuran-2-yl)thieno[2,3-d]pyrimidin-4-yl]oxy}-3-(2-methoxyphenyl)propanoic acid]",3.8e-08 M,0.347 µM

# Reference: patent US9670227B2, “Thienopyrimidine derivatives, a process for their preparation and pharmaceutical compositions containing them” (LES LABORATOIRES SERVIER, priority 2013, dated 2017)
